Source: patent US20220081422A1 (Janssen Biotech, Inc., priority 2019, published 2022)

What was measured:
MOLM-13 cells = experiment: MOLM-13 cellular assay (CellTiter-Glo cell viability); assay type: cell-based; conditions: 72 hours exposure, cell viability by CellTiter-Glo
Summary of the method: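 Cells seeded at 5,000/well and exposed to graded compound concentrations for 72 h at 37° C, 5% CO2 immediately after seeding. Viability read by CellTiter-Glo luminescence.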

human DHODH = biological target: T1, human DHODH (Homo sapiens, UniProt Q02127); experiment: DHODH enzymatic assay (DCIP absorbance, end-point); assay type: biochemical; conditions: purified human DHODH, DCIP as final electron acceptor, end-point mode; read-out: hDHODH IC50
T1 construct: purchased Proteros PR-0044
T1 sequence (Q02127 whole entry): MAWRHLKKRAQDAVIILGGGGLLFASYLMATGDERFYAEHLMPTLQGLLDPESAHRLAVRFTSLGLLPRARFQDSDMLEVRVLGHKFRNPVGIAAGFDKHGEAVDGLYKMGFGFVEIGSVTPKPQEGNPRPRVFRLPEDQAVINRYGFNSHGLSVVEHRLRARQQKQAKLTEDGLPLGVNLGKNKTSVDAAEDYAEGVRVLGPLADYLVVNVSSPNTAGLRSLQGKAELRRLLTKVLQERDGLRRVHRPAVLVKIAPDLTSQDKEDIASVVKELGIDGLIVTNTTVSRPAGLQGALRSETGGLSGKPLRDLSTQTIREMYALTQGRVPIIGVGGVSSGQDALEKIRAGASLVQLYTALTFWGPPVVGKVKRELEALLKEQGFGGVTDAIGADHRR
Summary of the method: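 Purified human DHODH; end-point absorbance of DCIP reduction as terminal electron acceptor. Reaction started with substrate mix of 20 mM DHO, 5 mM CoQ6, 1 mM DCIP (substrate-solution concentrations) in […] pH 7.5, 150 mM NaCl, 0.5 mM EDTA, 0.1% Triton X-100.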

Row | SMILES | IC50 (MOLM-13 cells; Homo sapiens, MOLM-13, 72 h) [µM] | IC50 (human DHODH) [µM] | IC50 (MOLM-13 cells) [µM]
1 | C=C(C1CN(c2c(F)cccc2Cl)C(=O)c2ccc(-n3nc(CO)n(CC)c3=O)cc21)C(F)(F)F (racemic) [Example 73, Racemic 2-(2-Chloro-6-fluorophenyl)-6-(4-ethyl-3-(hydroxymethyl)-5-oxo-4,5-dihydro-1H-1,2,4-triazol-1-yl)-4-(3,3,3-trifluoroprop-1-en-2-yl)-3,4-dihydroisoquinolin-1(2H)-one] | 0.0122 | 0.008 | 
2 | CCn1c(CO)nn(-c2cc3c(cc2F)C(=O)N(c2ccccc2Cl)CC3C(C)C)c1=O (single isomer, unassigned) [Example 37, (R *)-2-(2-Chlorophenyl)-6-(4-ethyl-3-(hydroxymethyl)-5-oxo-4,5-dihydro-1H-1,2,4-triazol-1-yl)-7-fluoro-4-isopropyl-3,4-dihydroisoquinolin-1(2H)-one] |  | 0.02 | 0.0155
3 | CC[C@@H](C)[C@H]1CN(c2c(F)cccc2Cl)C(=O)c2cc(F)c(-n3nc(CO)n(CC)c3=O)cc21 (relative stereo) [Example 72, (R*)-4-((R*)-sec-Butyl)-2-(2-chloro-6-fluorophenyl)-6-(4-ethyl-3-(hydroxymethyl)-5-oxo-4,5-dihydro-1H-1,2,4-triazol-1-yl)-7-fluoro-3,4-dihydroisoquinolin-1(2H)-one] | 0.00657 | 0.005 | 
4 | CCn1c(CO)nn(-c2cc3c(cc2F)c(=O)n(-c2c(F)cccc2Cl)c(=O)n3C(C)C)c1=O [Example 4, 3-(2-Chloro-6-fluorophenyl)-7-(4-ethyl-3-(hydroxymethyl)-5-oxo-4,5-dihydro-1H-1,2,4-triazol-1-yl)-6-fluoro-1-isopropylquinazoline-2,4(1H,3H)-dione] | 0.0044 | 0.11 | 
5 | CCn1c(CO)nn(-c2cc3c(cc2F)C(=O)N(c2c(F)cccc2Cl)CN3[C@@H](C)C2CCCCC2)c1=O [Example 17, (S)-3-(2-Chloro-6-fluorophenyl)-1-(1-cyclohexylethyl)-7-(4-ethyl-3-(hydroxymethyl)-5-oxo-4,5-dihydro-1H-1,2,4-triazol-1-yl)-6-fluoro-2,3-dihydroquinazolin-4(1H)-one] | < 0.00169 | 0.0001 | 
6 | CCn1c(CO)nn(-c2ccc3c(c2)C(C(C)C)CN(c2ccccc2F)C3=O)c1=O (racemic) [Example 12, Racemic-6-(4-Ethyl-3-(hydroxymethyl)-5-oxo-4,5-dihydro-1H-1,2,4-triazol-1-yl)-2-(2-fluorophenyl)-4-isopropyl-3,4-dihydroisoquinolin-1(2H)-one] | 0.058 | 0.14 | 

Further lines, results first:

Row | IC50 (MOLM-13 cells; Homo sapiens, MOLM-13, 72 h) [µM] | IC50 (human DHODH) [µM] | IC50 (MOLM-13 cells) [µM] | SMILES
7 |  | 0.001 | 0.00199 | C=C(C)C1CN(c2ccccc2C)C(=O)c2cc(F)c(-n3nc(CO)n(CC)c3=O)cc21 (single isomer, unassigned) [Example 41, (S*)-6-(4-Ethyl-3-(hydroxymethyl)-5-oxo-4,5-dihydro-1H-1,2,4-triazol-1-yl)-7-fluoro-4-(prop-1-en-2-yl)-2-(o-tolyl)-3,4-dihydroisoquinolin-1(2H)-one]
8 |  | 0.03 | 0.0316 | CCn1c(CO)nn(-c2cc3c(cc2F)C(=O)N(c2ccccc2Cl)CC3C(C)C)c1=O (single isomer, unassigned) [Example 36, (S*)-2-(2-Chlorophenyl)-6-(4-ethyl-3-(hydroxymethyl)-5-oxo-4,5-dihydro-1H-1,2,4-triazol-1-yl)-7-fluoro-4-isopropyl-3,4-dihydroisoquinolin-1(2H)-one]
9 | < 0.00169 | 0.0003 |  | CC[C@H](C)N1CN(c2c(F)cccc2Cl)C(=O)c2cc(F)c(-n3nc(CO)n(CC)c3=O)cc21 [Example 16, (S)-1-(sec-Butyl)-3-(2-chloro-6-fluorophenyl)-7-(4-ethyl-3-(hydroxymethyl)-5-oxo-4,5-dihydro-1H-1,2,4-triazol-1-yl)-6-fluoro-2,3-dihydroquinazolin-4(1H)-one]
10 |  | > 0.1 | 0.359 | C=C(C)[C@H]1CN(c2c(C)cnc(OC)c2Cl)C(=O)c2cc(F)c(-n3nc(CO)n(CC)c3=O)cc21 (single isomer, unassigned; atropisomer 1) [Example 63, Atropisomer 1, (R *)-2-(3-Chloro-2-methoxy-5-methylpyridin-4-yl)-6-(4-ethyl-3-(hydroxymethyl)-5-oxo-4,5-dihydro-1H-1,2,4-triazol-1-yl)-7-fluoro-4-(prop-1-en-2-yl)-3,4-dihydroisoquinolin-1(2H)-one]
11 | 0.0361 | 0.02 |  | CCn1c(CO)nn(-c2cc3c(cc2F)C(=O)N(c2c(C)ccnc2Cl)CN3C(C)C)c1=O [Example 28, 3-(2-Chloro-4-methylpyridin-3-yl)-7-(4-ethyl-3-(hydroxymethyl)-5-oxo-4,5-dihydro-1H-1,2,4-triazol-1-yl)-6-fluoro-1-isopropyl-2,3-dihydroquinazolin-4(1H)-one]
12 | 0.44 | 1.04 |  | CCn1c(CO)nn(-c2cc3c(cc2F)C(=O)N(c2c(F)cccc2Cl)C(C)(C)N3C(C)C)c1=O [Example 3, 3-(2-Chloro-6-fluorophenyl)-7-(4-ethyl-3-(hydroxymethyl)-5-oxo-4,5-dihydro-1H-1,2,4-triazol-1-yl)-6-fluoro-1-isopropyl-2,2-dimethyl-2,3-dihydroquinazolin-4 (1H)-one]
13 | 0.0229 | 0.006 |  | CCn1c(CO)nn(-c2cc3c(cc2F)C(=O)N(c2c(F)cccc2Cl)CN3CC2CCCCC2)c1=O [Example 21, 3-(2-Chloro-6-fluorophenyl)-1-(cyclohexylmethyl)-7-(4-ethyl-3-(hydroxymethyl)-5-oxo-4,5-dihydro-1H-1,2,4-triazol-1-yl)-6-fluoro-2,3-dihydroquinazolin-4(1H)-one]
